{"source": "patent US20170298051A1", "about": "“ACTIVATOR OF ADIPONECTIN RECEPTOR” (THE UNIVERSITY OF TOKYO, priority 2013, published 2017)", "key": {"Human AdipoR2": {"target": "T1, Human AdipoR2 (Homo sapiens, UniProt Q86V24)", "T1 construct": "made in house", "T1 sequence (Q86V24 1-386)": "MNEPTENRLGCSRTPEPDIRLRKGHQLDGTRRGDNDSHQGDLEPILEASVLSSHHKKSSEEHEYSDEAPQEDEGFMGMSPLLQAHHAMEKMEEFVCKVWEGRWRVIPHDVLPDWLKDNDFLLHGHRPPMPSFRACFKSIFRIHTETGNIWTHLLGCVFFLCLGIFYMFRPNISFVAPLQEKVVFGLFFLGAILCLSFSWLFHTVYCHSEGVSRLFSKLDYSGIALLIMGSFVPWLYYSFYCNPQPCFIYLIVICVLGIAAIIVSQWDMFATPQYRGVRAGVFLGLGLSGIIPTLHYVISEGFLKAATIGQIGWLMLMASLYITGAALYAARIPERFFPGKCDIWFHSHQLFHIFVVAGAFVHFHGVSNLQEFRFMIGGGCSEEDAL", "assay": "Surface plasmon resonance, affinity for AdipoR2", "type": "binding", "conditions": "SPR", "description": "Surface plasmon resonance measurements were performed by a BIAcore X100 system (GE Healthcare) and sensor chip SA (GE Healthcare). Human AdipoR1 and AdipoR2 were expressed with the baculovirus system, and purified to homogeneity. The AdipoR1 and AdipoR2 samples were then reconstituted into egg-phosphatidylcholine liposomes containing biotinyl phosphatidylethanolamine (Avanti), as previously reported^a. Mouse full-length adiponectin was generated as previously described^b,c,d,e. AdipoR1 and AdipoR2 were immobilized onto a sensor chip SA to levels of 2,500-3,000 response units (RU) using standard immobilization protocols (GE Healthcare).\nExperiments were performed at 25° C. using AdipoRon (0.49-31.25 μM) and adiponectin (1.5 ng-3.75 μg) and using electrophoresis buffer (20 mM Hepes (pH 7.4), 200 mM NaCl, 10% glycerol, […] surfactant P20). Biacore X100 Evaluation Software was used to determine the equilibrium dissociation constant (KD) of the compound or proteins."}, "AMPK": {"system": "AMPK", "assay": "AMPK phosphorylation in vivo in skeletal muscle and liver", "set-up": "species or system mice", "conditions": "intravenous 50 mg/kg", "description": "Immunoblotting was carried out according to the method described previously by which the livers, muscles or white adipose tissues were freeze-clamped in liquid nitrogen in situ^b,d,e.\nThe procedures used for immunoprecipitation and immunoblotting have been described previously^a,f. Muscle, liver or cell lysates were incubated with 60 μl of protein G sepharose linked to antibodies against phosphotyrosine (4G10) (Merck Millipore). Beads were then washed, the resultant was boiled for 5 min in a sample buffer and the immunoprecipitates were subjected to immunoblotting. Phosphorylation and/or the protein levels of AMPKα (Cell signaling #2535, #2532), IRβ (Upstate 05-321, Santa Cruz sc-711), AKT (Cell signaling #9271, #9272), GSK3 (Cell signaling #5558, #9315) and tubulin (NeoMarkers RB-9281-PO) were determined as described^a,g,h."}, "mice on a HF diet": {"system": "mice on a HF diet", "assay": "Hyperinsulinemic euglycemic clamp study in mice on a HF diet", "type": "in vivo", "description": "Clamp studies were carried out as described previously^a,b, with slight modifications. In brief, 2-3 days before the study, an infusion catheter was inserted into the right jugular vein under general anesthesia with sodium pentobarbital. Studies were performed on mice under conscious and unstressed conditions after a 6 h fast. A primed continuous infusion of insulin (Humulin R, Lilly) was given (10.0 milliunits/kg/min),and the blood glucose concentration, monitored every 5 min, was maintained at 120 mg/dl by administration of glucose (5 g of glucose per 10 ml enriched to 20% with [6,6-^2H2] glucose (Sigma)) for 120 min. Blood was sampled via tail tip bleeds at 90, 105, and 120 min for determination of the rate of glucose disappearance (Rd). Rd was calculated according to nonsteady-state equations, and endogenous glucose production (EGP) was calculated as the difference between Rd and exogenous glucose infusion rates^a,b,c."}, "mice fed a HF diet": {"system": "mice fed a HF diet", "assay": "Effects on lipid metabolism: plasma triglycerides and free fatty acid in mice fed a HF diet", "type": "in vivo", "description": "Mice were 6-10 week of age at the time of the experiment. They were housed in cages and maintained on a 12 hr light-dark cycle.\nPlasma glucose levels were determined by using a glucose B-test (Wako Pure Chemical Industries). Plasma insulin was measured with an insulin immunoassay (Shibayagi). Plasma NEFAs (Wako Pure Chemical Industries) were assayed by enzymatic methods."}, "[1]": {"system": "AdipoR1-AMPK-PGC-1α pathways in skeletal muscle", "assay": "Skeletal muscle: gene expression, mitochondrial DNA content, TG content, TBARS in mice fed a HF diet", "type": "in vivo", "description": "Mitochondrial content assays were carried out as described previously^a,b, with slight modifications. For quantification of mitochondrial content, we used mtDNAas previously described^c.\n(§1) Real-time PCR was carried out according to the method described previously^a,b,c. Total RNA was prepared from cells or tissues with Trizol (Invitrogen) according to the manufacturer's instructions. We used a real-time PCR method to quantify the mRNAs^19, with slight modifications.\n(§2) Skeletal muscle homogenates were extracted, and tissue triglyceride content was determined as described previously^a-c, with some modifications. To investigate whether oxidative stress was increased, we measured lipid peroxidation, a marker of oxidative injury, as represented by plasma thiobarbituric acid reactive substance (TBARS) as described previously^4. Briefly, tissue samples were homogenized in a buffer solution containing 50 mM Tris-HCl (pH 7.4) and 1.15% KCl, and then centrifuged. The supernatant was used for the assay. The levels of lipid peroxidation in tissue homogenate and plasma were measured in terms of the amount of TBARS using the LPO test (Wako Pure Chemical Industries)."}, "[2]": {"system": "AdipoR1-AMPK pathway and AdipoR2-PPARα pathway in the liver", "assay": "Liver: gene expression, TG content, TBARS in mice fed a HF diet", "type": "in vivo", "description": "as §1, §2"}, "db/db mice": {"system": "db/db mice", "assay": "Lifespan of db/db mice on a HF diet", "type": "in vivo", "conditions": "daily dose of 30 mg kg−1 body weight", "description": "Because the HF diet has been reported to shorten the lifespan, we examined whether orally administered AdipoRon could prolong the shortened lifespan due to a HF diet or not.\nThat is, the db/db mice were randomly divided into 3 groups: a normal chow group (Normal chow, n=20), high-fat group (High-fat, n=20) and high-fat and additionally AdipoRon group (High-fat+AdipoRon, n=20), which were treated with AdipoRon at a daily dose of 30 mg kg^−1 body weight. The survival rate was recorded daily."}, "[3]": {"conditions": "Adipor1/r2 double-knockout mice"}, "[4]": {"conditions": "WT mice on HF diet, 10 days of administration"}, "[5]": {"conditions": "WT mice fed a HF diet, oral 50 mg/kg, 10 days"}, "[6]": {"conditions": "Adipor1/r2 double-knockout mice fed with a HF diet"}}, "data": [{"smiles": "O=C(COc1ccc(C(=O)c2ccccc2)cc1)NC1CCN(Cc2ccccc2)CC1", "note": "[Compound 73, 2-(4-benzoyl-phenoxy)-N-(1-benzylpiperidin-4-yl)acetamide]", "values": [{"measurement": "Rmax", "setting": "Human AdipoR2", "value": 8.6, "unit": "RU"}, {"measurement": "Kd", "setting": "Human AdipoR2; 25° C., read-out: equilibrium dissociation constant (KD)", "value": 3.1, "unit": "µM"}, {"measurement": "phosphorylation of AMPK in skeletal muscle and liver", "setting": "AMPK; [3]", "value": "but not in Adipor1/r2 double-knockout mice"}, {"measurement": "phosphorylation of AMPK in skeletal muscle and liver", "setting": "AMPK; wild-type (WT) mice", "value": "significantly induced phosphorylation of AMPK"}, {"measurement": "GIR, EGP and Rd", "setting": "mice on a HF diet; [3]", "value": "None of these parameters were improved"}, {"measurement": "endogenous glucose production (EGP)", "setting": "mice on a HF diet; [4]", "value": "significantly suppressed"}, {"measurement": "glucose disposal rate (Rd)", "setting": "mice on a HF diet; [4]", "value": "significantly increased"}, {"measurement": "glucose infusion rate (GIR)", "setting": "mice on a HF diet; [4]", "value": "significantly increased"}, {"measurement": "reduction of plasma TG and FFA", "setting": "mice fed a HF diet; [3]", "value": "not observed"}, {"measurement": "plasma concentration of free fatty acid (FFA)", "setting": "mice fed a HF diet; [5]", "value": "reduced"}, {"measurement": "plasma concentration of triglycerides (TG)", "setting": "mice fed a HF diet; [5]", "value": "reduced"}, {"measurement": "effects on mitochondrial genes and mitochondrial DNA content in skeletal muscle", "setting": "[1]; [3]", "value": "totally obliterated"}, {"measurement": "levels of type I fiber marker Troponin I (slow) (Tnni1)", "setting": "[1]; [3]", "value": "but not in Adipor1/r2 double-knockout mice"}, {"measurement": "effect on Sod2 and TBARS", "setting": "[1]; [6]", "value": "such effect was not observed"}, {"measurement": "levels of type I fiber marker Troponin I (slow) (Tnni1)", "setting": "[1]; WT mice", "value": "increased the levels"}, {"measurement": "mitochondrial DNA content in skeletal muscle", "setting": "[1]; WT mice", "value": "increased mitochondrial DNA content"}, {"measurement": "TG content in the skeletal muscle", "setting": "[1]; WT mice fed with a HF diet", "value": "decreased TG content"}, {"measurement": "expression levels of oxidative stress detoxifying genes such as Sod2", "setting": "[1]; skeletal muscle, WT mice", "value": "significantly increased expression levels"}, {"measurement": "genes involved in fatty acid oxidation such as Acadm", "setting": "[1]; skeletal muscle, WT mice", "value": "significantly increased"}, {"measurement": "oxidative stress markers such as TBARS", "setting": "[1]; skeletal muscle, WT mice", "value": "decreased oxidative stress markers"}, {"measurement": "effect on TG content and TBARS in the liver", "setting": "[2]; [6]", "value": "such effect was not observed"}, {"measurement": "expression level of genes encoding pro-inflammatory cytokines in the liver", "setting": "[2]; [6]", "value": "such effect was not observed"}, {"measurement": "expressions of Ppargc1a and G6pc in the liver", "setting": "[2]; [6]", "value": "such effect was not observed"}, {"measurement": "expression levels of Pparα and its target genes (Acox1, Ucp2, Cat) in the liver", "setting": "[2]; WT mice fed a HF diet", "value": "increased the expression levels"}, {"measurement": "TG content in the liver", "setting": "[2]; WT mice fed with a HF diet", "value": "significantly reduced TG content"}, {"measurement": "expression level of genes encoding pro-inflammatory cytokines (Tnf, Ccl2) in the liver", "setting": "[2]; WT mice fed with a HF diet", "value": "reduced the expression level"}, {"measurement": "expressions of Ppargc1a and G6pc in the liver", "setting": "[2]; WT mice fed with a HF diet", "value": "significantly decreased the expressions"}, {"measurement": "oxidative stress, as measured by TBARS, in the liver", "setting": "[2]; WT mice fed with a HF diet", "value": "significantly reduced"}, {"measurement": "lifespan", "setting": "db/db mice", "value": "significantly rescued the shortened lifespan"}]}]}
